One block for each compound: values may come before it.
Tested on: 439559-082-T-J2-PDC spheroids viability
Assay: Anticancer human tumor 439559-082-T-J2-PDC patient-derived colon adenocarcinoma cell line growth inhibition [GQUAD]
Conditions: for IC50: curve of first compound; for viability, T/C: stronger effect = lower value
How it was run: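 Viability of tumor cells grown as complex spheroids with endothelial and stromal cells, exposed to drug combinations. Top concentration at or near clinical Cmax (else 10 microM), diluted in half-log increments.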

[1] = second compound 0.0316 µM, first compound 0.0316 µM
[2] = second compound 0.0316 µM, first compound 0.316 µM
[3] = second compound 0.1 µM, first compound 0.0316 µM
[4] = second compound 0.1 µM, first compound 0.316 µM
[5] = second compound 0.316 µM, first compound 0.0316 µM
[6] = second compound 0.316 µM, first compound 0.316 µM
[7] = second compound 1 µM, first compound 0.0316 µM
[8] = second compound 1 µM, first compound 0.316 µM
[9] = second compound 3.16 µM, first compound 0.0316 µM
[10] = second compound 3.16 µM, first compound 0.316 µM
[11] = second compound 10 µM, first compound 0.0316 µM
[12] = second compound 10 µM, first compound 0.316 µM
[13] = second compound 0.0316 µM, first compound 0.000999 µM
[14] = second compound 0.0316 µM, first compound 0.00316 µM
[15] = second compound 0.0316 µM, first compound 0.00999 µM
[16] = second compound 0.0316 µM, first compound 0.0999 µM
[17] = second compound 0.1 µM, first compound 0.000999 µM
[18] = second compound 0.1 µM, first compound 0.00316 µM
[19] = second compound 0.1 µM, first compound 0.00999 µM
[20] = second compound 0.1 µM, first compound 0.0999 µM
[21] = second compound 0.316 µM, first compound 0.000999 µM
[22] = second compound 0.316 µM, first compound 0.00316 µM
[23] = second compound 0.316 µM, first compound 0.00999 µM
[24] = second compound 0.316 µM, first compound 0.0999 µM
[25] = second compound 1 µM, first compound 0.000999 µM
[26] = second compound 1 µM, first compound 0.00316 µM
[27] = second compound 1 µM, first compound 0.00999 µM
[28] = second compound 1 µM, first compound 0.0999 µM
[29] = second compound 3.16 µM, first compound 0.000999 µM
[30] = second compound 3.16 µM, first compound 0.00316 µM
[31] = second compound 3.16 µM, first compound 0.00999 µM
[32] = second compound 3.16 µM, first compound 0.0999 µM
[33] = second compound 10 µM, first compound 0.000999 µM
[34] = second compound 10 µM, first compound 0.00316 µM
[35] = second compound 10 µM, first compound 0.00999 µM
[36] = second compound 10 µM, first compound 0.0999 µM
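Also: spheroids exposed to the agents for 7 days before readout.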
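For viability, T/C in this document: percent of luminescence signal in DMSO vehicle wells taken as 100% viability.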

IC50 (second compound 0.0316 µM): 0.176 µM
IC50 (second compound 0.1 µM): 0.123 µM
IC50 (second compound 0.316 µM): 0.0809 µM
IC50 (second compound 1 µM): 0.0715 µM
IC50 (second compound 3.16 µM): 0.0468 µM
IC50 (second compound 10 µM): 0.0373 µM
Structure (SMILES): CC1COCCN1c1cc(-c2ccnn2C)c2ccnc(-c3ccn[nH]3)c2n1 (stereo unspecified) + Cc1cnc(CNC(=O)c2c(=O)c3ccc(N4CCCN(C)CC4)nc3n3c2sc2ccccc23)cn1
viability, T/C [1]: 85.7%
viability, T/C (second compound 0.0316 µM, first compound 0.1 µM): 62.4%
viability, T/C [2]: 37.3%
viability, T/C (second compound 0.0316 µM, first compound 1 µM): 31.8%
viability, T/C (second compound 0.0316 µM, first compound 3.16 µM): 33.6%
viability, T/C (second compound 0.0316 µM, first compound 10 µM): 30%
viability, T/C [3]: 91.6%
viability, T/C (second compound 0.1 µM, first compound 0.1 µM): 53%
viability, T/C [4]: 36.4%
viability, T/C (second compound 0.1 µM, first compound 1 µM): 27.6%
viability, T/C (second compound 0.1 µM, first compound 3.16 µM): 40%
viability, T/C (second compound 0.1 µM, first compound 10 µM): 28.1%
viability, T/C [5]: 74.4%
viability, T/C (second compound 0.316 µM, first compound 0.1 µM): 43.8%
viability, T/C [6]: 33.9%
viability, T/C (second compound 0.316 µM, first compound 1 µM): 34.1%
viability, T/C (second compound 0.316 µM, first compound 3.16 µM): 32.9%
viability, T/C (second compound 0.316 µM, first compound 10 µM): 24.4%
viability, T/C [7]: 66.3%
viability, T/C (second compound 1 µM, first compound 0.1 µM): 43.4%
viability, T/C [8]: 33.2%
viability, T/C (second compound 1 µM, first compound 1 µM): 30%
viability, T/C (second compound 1 µM, first compound 3.16 µM): 32%
viability, T/C (second compound 1 µM, first compound 10 µM): 26.1%
viability, T/C [9]: 57.6%
viability, T/C (second compound 3.16 µM, first compound 0.1 µM): 33.4%
viability, T/C [10]: 31.4%
viability, T/C (second compound 3.16 µM, first compound 1 µM): 31.6%
viability, T/C (second compound 3.16 µM, first compound 3.16 µM): 27.4%
viability, T/C (second compound 3.16 µM, first compound 10 µM): 19.9%
viability, T/C [11]: 52.9%
viability, T/C (second compound 10 µM, first compound 0.1 µM): 35%
viability, T/C [12]: 32.5%
viability, T/C (second compound 10 µM, first compound 1 µM): 25.9%
viability, T/C (second compound 10 µM, first compound 3.16 µM): 27.3%
viability, T/C (second compound 10 µM, first compound 10 µM): 20.3%

Structure (SMILES): Cc1[nH]c2ccccc2c1CCNCc1ccc(/C=C/C(=O)NO)cc1 + CN(C)c1ccc(Nc2c3ccc(NC(=O)CCN4CCCC4)cc3nc3cc(NC(=O)CCN4CCCC4)ccc23)cc1
IC50 (second compound 0.0316 µM): > 0.316 µM
IC50 (second compound 0.1 µM): > 0.316 µM
IC50 (second compound 0.316 µM): > 0.316 µM
IC50 (second compound 1 µM): > 0.316 µM
IC50 (second compound 3.16 µM): > 0.316 µM
IC50 (second compound 10 µM): > 0.316 µM
viability, T/C [13]: 105%
viability, T/C [14]: 86.9%
viability, T/C [15]: 91.8%
viability, T/C [1]: 87.3%
viability, T/C [16]: 84.7%
viability, T/C [2]: 63.6%
viability, T/C [17]: 110%
viability, T/C [18]: 102%
viability, T/C [19]: 101%
viability, T/C [3]: 83.9%
viability, T/C [20]: 83.8%
viability, T/C [4]: 60.9%
viability, T/C [21]: 93.6%
viability, T/C [22]: 91.3%
viability, T/C [23]: 85.5%
viability, T/C [5]: 76.4%
viability, T/C [24]: 80%
viability, T/C [6]: 62.3%
viability, T/C [25]: 99.1%
viability, T/C [26]: 99.1%
viability, T/C [27]: 99.9%
viability, T/C [7]: 86.9%
viability, T/C [28]: 78.5%
viability, T/C [8]: 64.1%
viability, T/C [29]: 93.8%
viability, T/C [30]: 89.4%
viability, T/C [31]: 88.5%
viability, T/C [9]: 79.2%
viability, T/C [32]: 75.3%
viability, T/C [10]: 60.8%
viability, T/C [33]: 96.1%
viability, T/C [34]: 95.7%
viability, T/C [35]: 97.9%
viability, T/C [11]: 84.7%
viability, T/C [36]: 83%
viability, T/C [12]: 68.9%

IC50 (second compound 0.0316 µM): > 0.316 µM
IC50 (second compound 0.1 µM): > 0.316 µM
IC50 (second compound 0.316 µM): > 0.316 µM
IC50 (second compound 1 µM): > 0.316 µM
IC50 (second compound 3.16 µM): > 0.316 µM
IC50 (second compound 10 µM): 0.205 µM
Structure (SMILES): Cc1[nH]c2ccccc2c1CCNCc1ccc(/C=C/C(=O)NO)cc1 + Cc1cnc(CNC(=O)c2c(=O)c3ccc(N4CCCN(C)CC4)nc3n3c2sc2ccccc23)cn1
viability, T/C [13]: 101%
viability, T/C [14]: 92.8%
viability, T/C [15]: 99%
viability, T/C [1]: 90.6%
viability, T/C [16]: 81.7%
viability, T/C [2]: 63.7%
viability, T/C [17]: 104%
viability, T/C [18]: 100%
viability, T/C [19]: 87.5%
viability, T/C [3]: 93.9%
viability, T/C [20]: 85.9%
viability, T/C [4]: 59.8%
viability, T/C [21]: 92.7%
viability, T/C [22]: 85.4%
viability, T/C [23]: 89.6%
viability, T/C [5]: 76.2%
viability, T/C [24]: 80.8%
viability, T/C [6]: 65.2%
viability, T/C [25]: 86.8%
viability, T/C [26]: 79.6%
viability, T/C [27]: 80.4%
viability, T/C [7]: 71.8%
viability, T/C [28]: 83.1%
viability, T/C [8]: 55.7%
viability, T/C [29]: 73.4%
viability, T/C [30]: 70.1%
viability, T/C [31]: 81.4%
viability, T/C [9]: 74.1%
viability, T/C [32]: 73.7%
viability, T/C [10]: 53.9%
viability, T/C [33]: 70%
viability, T/C [34]: 68.7%
viability, T/C [35]: 64.2%
viability, T/C [11]: 67%
viability, T/C [36]: 67.5%
viability, T/C [12]: 39.5%

— PubChem BioAssay AID2060510 (Molecular Pharmacology Branch, DTP, NCI, 2025)
